From article PMC8286840, “Identifying SARS-CoV-2 antiviral compounds by screening for small molecule inhibitors of Nsp3 papain-like protease” (Biochemical Journal, 2021)
Structures can show the parent of a compound that is named as a salt. Where two headings read alike, the source gives them in different places. Where a SMILES comes first, the peptide text is derived from it.

Key:
[1] = target: T1, SARS-CoV-2 PLpro (nsp3 1564–1878) (Severe acute respiratory syndrome coronavirus 2, UniProt P0DTD1); assay: biochemical; parameters: FRET-quenched peptide (Pro3) cleavage by PLpro, 10 min pre-incubation, slope over 20 min, normalised to no-compound control; conditions: read-out: % of control remaining
[2] = target: T1, SARS-CoV-2 PLpro (nsp3 1564–1878); assay: biochemical; parameters: FRET-quenched peptide (Pro3) cleavage by PLpro, 10 min pre-incubation, slope over 20 min, normalised to no-compound control; conditions: read-out: % of control remaining; remark: listed apart in the source

In the case of `CO/N=C(\C(=O)N[C@@H]1C(=O)N2C(C(=O)O)=C(CSc3nc(=O)c(O)nn3C)CS[C@H]12)c1csc(N)n1` [Ceftriaxone sodium], the remaining activity at 1.25 µM ([1]; Well no.=132, low concentration screen) is reported as 105% and the remaining activity at 3.75 µM ([2]; Well no.=132, high concentration screen) is reported as 105%.
With `COC(=O)[C@H](Cc1ccccc1)NC(=O)[C@@H](N)CC(=O)O` [Aspartame] (H-Asp-Phe-OMe) the remaining activity at 1.25 µM ([1]; Well no.=5048, low concentration screen) was 100%, the remaining activity at 1.25 µM ([1]; Well no.=7302, low concentration screen) was 102% and the remaining activity at 3.75 µM ([2]; Well no.=5048, high concentration screen) was 101%. It also gave a remaining activity at 3.75 µM ([2]; Well no.=7302, high concentration screen) of 102%.
`CN(C)CCN(C)CCc1ccc(Cl)c(Cl)c1` [BD 1047 dihydrobromide] gave a remaining activity at 1.25 µM ([1]; Well no.=5470, low concentration screen) of 101% and a remaining activity at 3.75 µM ([2]; Well no.=5470, high concentration screen) of 108%.
`CN1C[C@H](CO)C=C2c3cccc4[nH]cc(c34)C[C@H]21` [Lysergol] showed a remaining activity at 1.25 µM ([1]; Well no.=3382, low concentration screen) of 96.8% and a remaining activity at 3.75 µM ([2]; Well no.=3382, high concentration screen) of 93.3%.
Molecule `Cc1c(NC(=O)c2cc(C(N)=O)nc3cc(F)ccc23)c(C(F)(F)F)nn1Cc1ccc(C#N)cc1` [BAY-876] has a remaining activity at 1.25 µM ([1]; Well no.=8680, low concentration screen) of 101% and a remaining activity at 3.75 µM ([2]; Well no.=8680, high concentration screen) of 98.3%.
`CCCCCCCCCCCCCCCCC(=O)O` [Heptadecanoic acid] gave a remaining activity at 1.25 µM ([1]; Well no.=4308, low concentration screen) of 106% and a remaining activity at 3.75 µM ([2]; Well no.=4308, high concentration screen) of 101%.
Molecule `O=c1ccn([C@@H]2O[C@H](COP(=O)(O)OP(=O)(O)OP(=O)(O)O)[C@@H](O)[C@H]2O)c(=O)[nH]1` [Uridine triphosphate (trisodium salt)] has a remaining activity at 1.25 µM ([1]; Well no.=7810, low concentration screen) of 105% and a remaining activity at 3.75 µM ([2]; Well no.=7810, high concentration screen) of 105%.
`Cc1c(Cn2c(C)nc3c(C(=O)O)cc(N4CCOCC4)cc32)cccc1C(F)(F)F` [GSK2636771] was tested, and the remaining activity at 1.25 µM ([1]; Well no.=5178, low concentration screen) was 93.1% and the remaining activity at 3.75 µM ([2]; Well no.=5178, high concentration screen) was 96.9%.
For `O=C(O)[C@H](CC(=O)N1C[C@H]2CCCC[C@H]2C1)Cc1ccccc1` [Mitiglinide calcium], the remaining activity at 1.25 µM ([1]; Well no.=4888, low concentration screen) was 95.5% and the remaining activity at 3.75 µM ([2]; Well no.=4888, high concentration screen) was 96.8%.
For `C[C@]1(c2nc3c(C(N)=O)cccc3[nH]2)CCCN1` [ABT-888 (Veliparib)], the remaining activity at 1.25 µM ([1]; Well no.=5222, low concentration screen) was 95.8% and the remaining activity at 3.75 µM ([2]; Well no.=5222, high concentration screen) was 94.2%.
Molecule `CCCCC[C@H](O)/C=C/[C@@H]1[C@@H](C/C=C\CCCC(=O)O)[C@@H](O)C[C@H]1O` [Dinoprost (tromethamine salt)] has a remaining activity at 1.25 µM ([1]; Well no.=6475, low concentration screen) of 104% and a remaining activity at 3.75 µM ([2]; Well no.=6475, high concentration screen) of 105%.
In the case of `COc1cc2c(cc1OC)-c1cc3ccc4c(c3c[n+]1CC2)OCO4` [Epiberberine (chloride)], the remaining activity at 1.25 µM ([1]; Well no.=8339, low concentration screen) is reported as 91.9% and the remaining activity at 3.75 µM ([2]; Well no.=8339, high concentration screen) is reported as 91.9%.
`COc1nc(OCc2cccc(-c3ccccc3)c2C)ccc1CNCCN` [N-deacetylated BMS-202] showed a remaining activity at 1.25 µM ([1]; Well no.=8458, low concentration screen) of 102% and a remaining activity at 3.75 µM ([2]; Well no.=8458, high concentration screen) of 100%.
Work on `CCCCC/C=C\C/C=C\CCCCCCCCC(=O)O` [10(Z),13(Z)-Nonadecadienoic acid] yielded a remaining activity at 1.25 µM ([1]; Well no.=4396, low concentration screen) of 97.8% and a remaining activity at 3.75 µM ([2]; Well no.=4396, high concentration screen) of 92.5%.
In the case of `N[C@@H]1C[C@H]1c1ccccc1` [Tranylcypromine hydrochloride], the remaining activity at 1.25 µM ([1]; Well no.=1399, low concentration screen) is reported as 100% and the remaining activity at 3.75 µM ([2]; Well no.=1399, high concentration screen) is reported as 105%.
`CC(C)(C)OC(=O)CN(Cc1ccc(Cl)cc1)Cc1ccc([N+](=O)[O-])s1` [GSK4112] gave a remaining activity at 1.25 µM ([1]; Well no.=5910, low concentration screen) of 97.7% and a remaining activity at 3.75 µM ([2]; Well no.=5910, high concentration screen) of 96%.
Work on `c1nc2c(NC3CCCCC3)nc(Nc3ccc(N4CCOCC4)cc3)nc2[nH]1` [Reversine] yielded a remaining activity at 1.25 µM ([1]; Well no.=2621, low concentration screen) of 98.6% and a remaining activity at 3.75 µM ([2]; Well no.=2621, high concentration screen) of 100%.
Work on `Cc1cnc(-c2cnc(NCCNc3ccc(C#N)cn3)nc2-c2ccc(Cl)cc2Cl)[nH]1` [CHIR99021] yielded a remaining activity at 1.25 µM ([1]; Well no.=5511, low concentration screen) of 99.8% and a remaining activity at 3.75 µM ([2]; Well no.=5511, high concentration screen) of 101%.
With `CC1(C)CCCC(C)(C)N1[O]` [TEMPO] the remaining activity at 1.25 µM [1] was 95.5% and the remaining activity at 3.75 µM [2] was 99.1%.
`CCCCCCCCCCCCCCCC(=O)C(F)(F)F` [PACOCF3] showed a remaining activity at 1.25 µM ([1]; Well no.=4390, low concentration screen) of 102% and a remaining activity at 3.75 µM ([2]; Well no.=4390, high concentration screen) of 100%.
In the case of `O=C(CCc1ccc(O)cc1)c1c(O)cc(O)cc1O[C@@H]1O[C@H](CO)[C@@H](O)[C@H](O)[C@H]1O` [Phlorizine], the remaining activity at 1.25 µM ([1]; Well no.=3452, low concentration screen) is reported as 94.2% and the remaining activity at 3.75 µM ([2]; Well no.=3452, high concentration screen) is reported as 97.9%.
For `NS(=O)(=O)c1cc2c(cc1Cl)NC(C1CC3C=CC1C3)NS2(=O)=O` (centres unmarked) [Cyclothiazide], the remaining activity at 1.25 µM ([1]; Well no.=387, low concentration screen) was 104% and the remaining activity at 3.75 µM ([2]; Well no.=387, high concentration screen) was 101%.
Molecule `O=C(c1ccc(F)cc1)C1CCN(CCn2c(=O)[nH]c3ccccc3c2=O)CC1` [Ketanserin (tartrate)] has a remaining activity at 1.25 µM ([1]; Well no.=6519, low concentration screen) of 100% and a remaining activity at 3.75 µM ([2]; Well no.=6519, high concentration screen) of 103%.
In the case of `COc1ccc2c(c1)CC[C@@H]1[C@@H]2CC[C@]2(C)[C@@H](NCCCCCCN3C(=O)C=CC3=O)CC[C@@H]12` [U-73122 hydrate], the remaining activity at 1.25 µM ([1]; Well no.=5562, low concentration screen) is reported as 93% and the remaining activity at 3.75 µM ([2]; Well no.=5562, high concentration screen) is reported as 93.8%.
`CCCn1c(=O)c2[nH]c(-c3ccc(OCC(=O)NCCN)cc3)nc2n(CCC)c1=O` [Xanthine amine congener] gave a remaining activity at 1.25 µM ([1]; Well no.=1532, low concentration screen) of 95.7% and a remaining activity at 3.75 µM ([2]; Well no.=1532, high concentration screen) of 89.4%.
Work on `O=C(O)CCC[C@H](O)\C=C/C=C/C=C/[C@H](O)C/C=C\CCCCCO` [20-Hydroxy-leukotriene B4] yielded a remaining activity at 1.25 µM ([1]; Well no.=4425, low concentration screen) of 101% and a remaining activity at 3.75 µM ([2]; Well no.=4425, high concentration screen) of 103%.
Molecule `C=C[C@@]1(C)CC[C@H]2C(=CC[C@@H]3[C@]2(C)CCC[C@@]3(C)C(=O)O)C1` [Isopimaric Acid] has a remaining activity at 1.25 µM ([1]; Well no.=5672, low concentration screen) of 94.1% and a remaining activity at 3.75 µM ([2]; Well no.=5672, high concentration screen) of 93.1%.
With `O=C(O)/C(S)=C/c1c[nH]c2ccc(F)cc12` [PD 151746] the remaining activity at 1.25 µM ([1]; Well no.=8812, low concentration screen) was 92.8% and the remaining activity at 3.75 µM ([2]; Well no.=8812, high concentration screen) was 92.9%.
`Cc1cccc(Cc2c[nH]cn2)c1C` [Detomidine HCl] gave a remaining activity at 1.25 µM ([1]; Well no.=5062, low concentration screen) of 103% and a remaining activity at 3.75 µM ([2]; Well no.=5062, high concentration screen) of 105%.
`CCC(=O)O[C@]1(C(=O)SCF)[C@H](C)C[C@H]2[C@@H]3C[C@H](F)C4=CC(=O)C=C[C@]4(C)[C@@]3(F)[C@@H](O)C[C@@]21C` [Fluticasone (propionate)] was tested, and the remaining activity at 1.25 µM ([1]; Well no.=7515, low concentration screen) was 98.2% and the remaining activity at 3.75 µM ([2]; Well no.=7515, high concentration screen) was 97.6%.
`CCCCCCCCCCCCCCCCCCCCC(=O)O` [Heneicosanoic acid] showed a remaining activity at 1.25 µM ([1]; Well no.=4450, low concentration screen) of 101% and a remaining activity at 3.75 µM ([2]; Well no.=4450, high concentration screen) of 101%.
With `O=c1c(-c2ccc(O)cc2)coc2cc(O[C@@H]3O[C@H](CO)[C@@H](O)[C@H](O)[C@H]3O)cc(O)c12` [Genistin] the remaining activity at 1.25 µM ([1]; Well no.=3213, low concentration screen) was 99.7% and the remaining activity at 3.75 µM ([2]; Well no.=3213, high concentration screen) was 97.9%.
For `O=c1c(O)c(-c2ccc(O)cc2O)oc2cc(O)cc(O)c12` [Morin], the remaining activity at 1.25 µM ([1]; Well no.=1022, low concentration screen) was 96.8% and the remaining activity at 3.75 µM ([2]; Well no.=1022, high concentration screen) was 93.4%.
Molecule `Oc1ccc(C2CNCCc3c2cc(O)c(O)c3Cl)cc1` (centres unmarked) [Fenoldopam bromide] has a remaining activity at 1.25 µM ([1]; Well no.=757, low concentration screen) of 98.2% and a remaining activity at 3.75 µM ([2]; Well no.=757, high concentration screen) of 96.8%.
In the case of `Nc1ccn([C@@H]2CS[C@H](CO)O2)c(=O)n1` [Lamivudine], the remaining activity at 1.25 µM ([1]; Well no.=8142, low concentration screen) is reported as 100% and the remaining activity at 3.75 µM ([2]; Well no.=8142, high concentration screen) is reported as 98.2%.
`CCOc1ccc(-c2cn(C)nc2-c2cc(OC)c(OC)c(OC)c2)cc1` [Tubulin inhibitor 1] was tested, and the remaining activity at 1.25 µM ([1]; Well no.=7162, low concentration screen) was 104% and the remaining activity at 3.75 µM ([2]; Well no.=7162, high concentration screen) was 97.8%.
